The record followed here is patent US20250250559A1, “METHOD TO ANALYZE AND OPTIMIZE GENE EDITING MODULES AND DELIVERY APPROACHES” (Hoffmann-La Roche Inc., priority 2016, published 2025).

Common to all, as to assay type: cell-based, human
Series [1] concerns DPH1 gene. The series is described as follows: DT resistant colony count after DPH1 gene editing (homozygous gene inactivation). Conditions: for # of DT resistant colonies (20,000 seeded cells) / # of DT resistant colonies (20,000 seeded cells) (unheaded second sub-column: mean): DPH1 (gRNA length), TF eff. = 31%; for # of DT resistant colonies (20,000 seeded cells): MCF7, individual samples A-D; for # of DT resistant colonies (mean of the samples): DPH1 assay (integr. vs. k.o.), 20,000 seeded cells; for # of DT resistant colonies (mean of the samples) / # of DT resistant colonies: TF eff. = 38%; for # of DT resistant colonies: DPH1 assay (integr. vs. k.o.), MCF7, 20,000 seeded cells, individual samples; for generation of DTr colonies: MCF7. As to the method: MCF7 cells (Brooks, et al. 1973) were originally obtained from ATCC (subsequently propagated in an in-house cell bank) and maintained in RPMI […] medium supplemented with 10% FCS, 2 mM L-Glutamine and penicillin/streptomycin at 37° C. and 85% humidity. For transfection of plasmids harboring gene-editing modules, 3,000,000 cells were seeded in a 10 cm diameter culture dish and cultivated at 37° C. and humidified 5% CO2. 24 h after seeding, cells were transfected with 20 μg total DNA using JetPEI (Polyplus) according to the manufacturer's protocol but with an N/P ratio of 6:1. Transfection efficiency was determined after 24 h by flow cytometry (FACS Calibur, BD biosciences) of cells that were transfected with a modified eGFP expression plasmid (Zhang, et al. 1996).
Plasmids encoding CRISPR/Cas9 gene-editing entities (i.e. knock-out and integration systems) against Dph1 (gRNA target sequence: […] (SEQ ID NO: 01) derived from RefSeq: NM_001383) and Dph2 (gRNA target sequence: […] (SEQ ID NO: 02) derived from RefSeq: NM_001039589, NM_001384), and scrambled control (gRNA sequence: […] (SEQ ID NO: 03)) were obtained from OriGene. This system comprises one plasmid expressing a ˜100 nt gRNA under control of a U6 promoter as well as Cas9 nuclease under control of a CMV promoter and a Donor plasmid with a promoter-less GFP/PM expression cassette flanked by homologous arms to the target gene (Dph1 or Dph2). Additional Dph1 gRNA sequence variants of different sizes (OriGene) […]
MCF7 cells which have all chromosomal copies of DPH1 or DPH2 inactivated are resistant to diphtheria toxin (Stahl, et al. 2015). Thus, occurrence and frequency of toxin resistant cells/colonies upon CRISPR/Cas inflicted gene inactivation provides a measure for efficiency of inactivation of all gene copies. Therefore, MCF/cells were transfected as described in Example 1 with (i) a GFP expression plasmid as transfection control, (ii) the CRISPR/Cas9 Dph1 or Dph2 knock-out/integration system and (iii) knock-out/integration entities containing a scrambled gRNA to determine Cas9 independent integration frequencies. After determination of transfection efficiency, cells were seeded in 6-well plates. For quantification of homozygous knock-out events by DT 20000 cells were seeded and for quantification of integration events by PM or both events 40000 cells were seeded. RPMI medium was exchanged by RPMI medium containing DT or PM or both toxins 3 days after cell seeding. Exchange of medium was repeated every 2-3 days until all dead cells were removed from the plates and actively growing colonies could be detected via microscopic inspection. Thereafter (between day 12 and day 14 after start of toxin exposure), cells were washed 3 times with PBS and subsequently stained with ice cold methylene blue (0.2% in 50% EtOH). Methylene blue solution was subsequently removed and the plates were carefully washed under running water. Finally, cell colonies were counted under the microscope with a 5 mm grid foil.
MCF7 cells which have all chromosomal copies of DPH1 inactivated are DT resistant. Thus, occurrence and frequency of DTr colonies upon ZFN inflicted gene inactivation and/or cassette integration provides a measure for efficacy of inactivation of all gene copies. The ZFN recognition sequence ([…], cleavage site, SEQ ID NO: 10) are derived from NM_001383.3 (DPH1-wt) and were obtained from Sigma Aldrich. A PAC integration cassette for this position was obtained from OriGene. MCF7 cells were transfected as described above with (i) a GFP expression plasmid, (ii) the plasmid encoding DPH1-targeting ZFN and (iii) the DPH1-targeting PAC-integration cassette. After determination of transfection efficiency, cells were seeded in 6-well plates. For quantification of homozygous knock-out events (DTr) 20,000 cells were seeded, 40,000 cells for quantification of integration events (PMr) or double resistances. […]

Series [2] has as its system DPH1 gene. Nature of the series: DT + PM double resistant colony count after DPH1 gene editing (integration with inactivation). Conditions: for # of DT + PM resistant colonies (40,000 seeded cells) / # of DT + PM resistant colonies (40,000 seeded cells) (unheaded second sub-column: mean): DPH1 (gRNA length), TF eff. = 31%; for # of DT + PM resistant colonies (40,000 seeded cells) / # of PM + DT resistant colonies (40,000 seeded cells): MCF7, individual samples A-D; for # of PM + DT resistant colonies (40,000 seeded cells) / # of PM + DT resistant colonies (40,000 seeded cells) (unheaded second sub-column: mean): DPH1 assay (integr. vs. (integr. + k.o.)), TF eff. = 67*%; for # of DT + PM resistant colonies (80,000 seeded cells): DPH1 assay editing entities, MCF-7, individual replicates, TF eff. = 33%.
Protocol: MCF7 cells (Brooks, et al. 1973) were originally obtained from ATCC (subsequently propagated in an in-house cell bank) and maintained in RPMI 1641 medium supplemented with 10% FCS, 2 mM L-Glutamine and penicillin/streptomycin at 37° C. and 85% humidity. For transfection of plasmids harboring gene-editing modules, 3,000,000 cells were seeded in a 10 cm diameter culture dish and cultivated at 37° C. and humidified 5% CO2. 24 h after seeding, cells were transfected with 20 μg total DNA using JetPEI (Polyplus) according to the manufacturer's protocol but with an N/P ratio of 6:1. Transfection efficiency was determined after 24 h by flow cytometry (FACS Calibur, BD biosciences) of cells that were transfected with a modified eGFP expression plasmid (Zhang, et al. 1996).
CRISPR/Cas module for targeted integration contains a puromycin (PM) resistance gene expression cassette without promoter to avoid transient expression. Thus, detection of integration of recombinant sequences into the genome was detected by determining sensitivity of cells towards PM. A concentration of 500 ng/μL PM (which quantitatively eliminates wildtype MCF7 cells) was applied to select MCF7 cells with stably integrated expression cassettes. PM-resistant colonies selected with the same procedure as described above for the DT selection and visualized and quantified (between 12 and 14 days after start of selection) in the same manner as described above for toxin resistant colonies. Number of PM resistant colonies obtained with non-target guide sequences (scrambled gRNA, FIG. 1) reflect the nonspecific integration background. Increase in colonies (above nonspecific background) obtained with target-gene gRNAs which are PM-resistant but toxin sensitive reflect integration into just one target allele, leaving the other dph1 or dph2 allele unaffected. PM resistant colonies that are also DT resistant have the expression cassette integrated into at least target allele and the other allele either inactivated or inactivated accompanied by yet another integration event.

The test system of series [3] is DPH1 gene. The series is described as follows: DT resistant colony count after DPH1 gene editing (homozygous gene inactivation). Conditions: for # of DT resistant colonies (mean of the samples) / # of DT resistant colonies: TF eff. = 38%; for # of DT resistant colonies: DPH1 assay (integr. vs. k.o.), individual samples; for # of DT resistant colonies (40,000 seeded cells): DPH1 assay editing entities, MCF-7, individual replicates, TF eff. = 33%.

Where [4] appears, read: listed as 20 mer Dph1 CRISPR Cas9 gRNA.
Setting [5] is: DPH1 assay (integr. vs. k.o.), 10,000 seeded cells.
Setting [6] is: DPH1 assay (integr. vs. k.o.), 40,000 seeded cells.

Where “and” joins values, the source holds several entries; their conditions need not be identical. Equal entries are not always repeated. Entries after “also recorded” stand apart in the source; their conditions may differ.

Turning to “20 mer SpCas9 DPH1 gRNA: Plasmids encoding SpCas9 and Dph1 gRNA (target CAGGGCGGCCGAGACGGCCC, SEQ ID NO: 01) plus PAC donor plasmid, OriGene”, the “efficiency relative to ZFN-editing (gene inactivation and integration)” value with DPH1 gene [1] is reported as “twice as efficient”. Also, the “efficiency relative to engineered high fidelity CRISPR/Cas9” value in the series on DPH1 gene [1] worked out at 5 fold. Also, the “# of DT resistant colonies (20,000 seeded cells)” value with DPH1 gene [1] was 417 and 406 and 409 and 404; in the series on DPH1 gene [1] (setting [4]) it was 417 and 406 and 409 and 404. Further, the “# of DT resistant colonies (20,000 seeded cells) (unheaded second sub-column: mean)” value in the series on DPH1 gene [1] turned out to be 409. For the same substance, the “# of DT resistant colonies (mean of the samples)” value in the series with DPH1 gene [1] was found to be 472; in the series with DPH1 gene [3] (setting [5]), 218; in the series with DPH1 gene [3] (setting [6]), 947. Also, the “# of DT resistant colonies” value with DPH1 gene [1] is 364 and 545 and 543 and 435; with DPH1 gene [1] (listed as CRISPR Cas9 Dph1 gRNA), 364 and 545 and 543 and 435; in the series with DPH1 gene [3] (MCF7, 10,000 seeded cells, listed as CRISPR Cas9 Dph1 gRNA), 201 and 224 and 219; in the series on DPH1 gene [3] (MCF7, 40,000 seeded cells) it was 995 and 942 and 899 and 950; in the series on DPH1 gene [3] (MCF7, 40,000 seeded cells, listed as CRISPR Cas9 Dph1 gRNA), 995 and 942 and 899 and 950. Besides, the “DPH1 inactivation efficacy in dependence on gRNA length” value with DPH1 gene [1] (DTr colonies) is on record as “maximum DPH1 inactivation efficacy; also recorded: maximal DPH1 gene inactivation efficiency”. In addition, the “frequency of complete inactivation of the DPH1 gene (all alleles)” value was ~6 % of all transfected cells in the series on DPH1 gene [1] (MCF7, FIG. 5A) and 2.5 % of all cells with DPH1 gene [1] (MCF7, considering transfection efficiencies of 40%). Moreover, the “efficacy of inactivation of both DPH1 alleles (DTr) over integration of the PAC expression cassette (PMr)” value in the series on DPH1 gene [1] (MCF7, FIG. 6) is 30-50 fold. Moreover, the “# of DT + PM resistant colonies (40,000 seeded cells)” value in the series on DPH1 gene [2] was 6 and 5 and 7 (2×); in the series with DPH1 gene [2] (setting [4]) it was 6 and 5 and 7 (2×). In addition, the “# of DT + PM resistant colonies (40,000 seeded cells) (unheaded second sub-column: mean)” value in the series on DPH1 gene [2] was found to be 6. The “# of PM + DT resistant colonies (40,000 seeded cells)” value with DPH1 gene [2] was 15 and 13 and 11 and 12; in the series with DPH1 gene [2] (listed as Dph1 CRISPR Cas9 gRNA) it was 15 and 13 and 11 and 12. For the same substance, in the series with DPH1 gene [2], the “# of PM + DT resistant colonies (40,000 seeded cells) (unheaded second sub-column: mean)” value amounted to 13. For the same substance, the “# of DT + PM resistant colonies (80,000 seeded cells)” value in the series on DPH1 gene [2] is 5 and 4 and 3. The “# of DT resistant colonies (40,000 seeded cells)” value in the series on DPH1 gene [3] was 476 and 492 and 468 and 472.
Regarding “20 mer SpCas9 scRNA: Scrambled control gRNA GCACTACCAGAGCTAACTCA (SEQ ID NO: 03) with SpCas9 and donor plasmid [reference compound]”, in the series on DPH1 gene [1], the “# of DT resistant colonies (20,000 seeded cells)” value came to 0, the “# of DT resistant colonies (20,000 seeded cells) (unheaded second sub-column: mean)” value was 0, the “# of DT resistant colonies (mean of the samples)” value was 0 and the “# of DT resistant colonies” value was determined as 0. In the series with DPH1 gene [1], the “generation of DTr colonies” value is reported as “did not generate any DTr colony”. Besides, in the series with DPH1 gene [1] (listed as scrambled guides), the “generation of DTr colonies” value is reported as “did not generate any DT-resistant colony”. Also, in the series with DPH1 gene [2], the “# of DT + PM resistant colonies (40,000 seeded cells)” value was determined as 0, the “# of DT + PM resistant colonies (40,000 seeded cells) (unheaded second sub-column: mean)” value amounted to 0, the “# of PM + DT resistant colonies (40,000 seeded cells)” value worked out at 0 and the “# of PM + DT resistant colonies (40,000 seeded cells) (unheaded second sub-column: mean)” value came out at 0. In addition, in the series on DPH1 gene [2], the “# of DT + PM resistant colonies (80,000 seeded cells)” value is 0. Besides, the “# of DT resistant colonies (mean of the samples)” value in the series on DPH1 gene [3] (setting [5]) turned out to be 0. Moreover, the “# of DT resistant colonies (mean of the samples)” value with DPH1 gene [3] (setting [6]) is 0. Besides, the “# of DT resistant colonies” value in the series on DPH1 gene [3] (MCF7, 10,000 seeded cells) was 0. In the series with DPH1 gene [3] (MCF7, 40,000 seeded cells), the “# of DT resistant colonies” value came out at 0. Besides, the “# of DT resistant colonies (40,000 seeded cells)” value in the series with DPH1 gene [3] worked out at 0.
